Data as given in patent US9896492B2, “HJURP peptides and vaccines including the same” (OncoTherapy Science, Inc., priority 2010, dated 2018).

Key:
peptide-pulsed T2 cells [1] = experiment: IFN-gamma ELISA assay of CTL lines and clones (HLA-A*0201); type: cell-based, human; settings: for IFN-gamma production of CTL clones (ELISA): CTL clones established by limiting dilution, target cells pulsed with peptide vs control; for IFN-gamma production of CTL lines (ELISA): CTL line stimulated with peptide, target cells pulsed with peptide vs without peptide pulse
Experimental: CTLs were expanded in culture using the method similar to the one described by Riddell et al. (Walter E A et al., N Engl J Med 1995 Oct. 19, 333(16): 1038-44; Riddell S R et al., Nat Med 1996 February, 2(2): 216-23). A total of 5×10^4 CTLs were suspended in 25 ml of AIM-V/5% AS medium with 2 kinds of human B-lymphoblastoid cell lines, inactivated by Mitomycin C, in the presence of 40 ng/ml of anti-CD3 monoclonal antibody (Pharmingen). One day after initiating the cultures, 120 IU/ml of IL-2 were added to the cultures. The cultures were fed with fresh AIM-V/5% AS medium containing 30 IU/ml of IL-2 on days 5, 8 and 11 (Tanaka H et al., Br J Cancer 2001 Jan. 5, 84(1): 94-9; Umano Y et al., Br J Cancer 2001 Apr. 20, 84(8): 1052-7; Uchida N et al., Clin Cancer Res 2004 Dec. 15, 10(24): 8577-86; Suda T et al., Cancer Sci 2006 May, 97(5): 411-9; Watanabe T et al., Cancer Sci 2005 August, 96(8): 498-506).
The dilutions were made to have 0.3, 1, and 3 CTLs/well in 96 round-bottomed micro titer plate (Nalge Nunc International). CTLs were cultured with 1×10^4 cells/well of 2 kinds of human B-lymphoblastoid cell lines, 30 ng/ml of anti-CD3 antibody, and 125 U/ml of IL-2 in a total of 150 micro-l/well of AIM-V Medium containing 5% AS. 50 micro-l/well of IL-2 were added to the medium 10 days later so to reach a final concentration of 125 U/ml IL-2. CTL activity was tested on the 14th day, and CTL clones were expanded using the same method as described above (Uchida N et al., Clin Cancer Res 2004 Dec. 15, 10(24): 8577-86; Suda T et al., Cancer Sci 2006 May, 97(5): 411-9; Watanabe T et al., Cancer Sci 2005 August, 96(8): 498-506).
(§1) Specifically, peptide-pulsed T2 (1×10^4/well) was prepared as stimulator cells. Cultured cells in 48 wells were used as responder cells. IFN-gamma ELISPOT assay and IFN-gamma ELISA assay were performed under manufacture procedure.

peptide-pulsed T2 cells [2] = experiment: In vitro CTL induction, IFN-gamma ELISPOT assay (HLA-A*0201); type: cell-based, human; settings: for Peptide specific CTL activity, IFN-gamma production (ELISPOT): CTLs from HLA-A*0201 positive donor stimulated with peptide-pulsed DCs, against peptide-pulsed target cells vs control; for CTL inducibility / specific CTL activity of CTLs stimulated with the peptide (summary statement): HLA-A2 restricted peptides
Text: Monocyte-derived dendritic cells (DCs) were used as antigen-presenting cells to induce cytotoxic T lymphocyte (CTL) responses against peptides presented on human leukocyte antigen (HLA). DCs were generated in vitro as described elsewhere (Nakahara S et al., Cancer Res 2003 Jul. 15, 63(14): 4112-8). Specifically, peripheral blood mononuclear cells isolated from a normal volunteer (HLA-A*0201 positive) by Ficoll-Plaque (Pharmacia) solution were separated by adherence to a plastic tissue culture dish (Becton Dickinson) so as to enrich them as the monocyte fraction. The monocyte-enriched population was cultured in the presence of 1,000 U/ml of granulocyte-macrophage colony-stimulating factor (R&D System) and 1,000 U/ml of interleukin (IL)-4 (R&D System) in AIM-V Medium (Invitrogen) containing 2% heat-inactivated autologous serum (AS). After 7 days of culture, the cytokine-induced DCs were pulsed with 20 micro-g/ml of each of the synthesized peptides in the presence of 3 micro-g/ml of beta 2-microglobulin for 3 hrs at 37 degrees C. in AIM-V Medium. The generated cells appeared to express DC-associated molecules, such as CD80, CD83, CD86 and HLA class II, on their cell surfaces (data not shown). These peptide-pulsed DCs were then inactivated by X-irradiation (20 Gy) and mixed at a 1:20 ratio with autologous CD8+ T cells, obtained by positive selection with CD8 Positive Isolation Kit (Dynal). These cultures were set up in 48-well plates (Corning); each well contained 1.5×10^4 peptide-pulsed DCs, 3×10^5 CD8+ T cells and 10 ng/ml of IL-7 (R&D System) in 0.5 ml of AIM-V/2% AS medium. Three days later, these cultures were supplemented with IL-2 (CHIRON) to a final concentration of 20 IU/ml. On days 7 and 14, the T cells were further stimulated with the autologous peptide-pulsed DCs. The DCs were prepared each time by the same way described above. CTLs were tested against peptide-pulsed T2 cells after the 3rd round of peptide stimulation on day 21 (Tanaka H et al., Br J Cancer 2001 Jan. 5, 84(1): 94-9; Umano Y et al., Br J Cancer 2001 Apr. 20, 84(8): 1052-7; Uchida N et al., Clin Cancer Res 2004 Dec. 15, 10(24): 8577-86; Suda T et al., Cancer Sci 2006 May, 97(5): 411-9; Watanabe T et al., Cancer Sci 2005 August, 96(8): 498-506).
as §1

Sequence | IFN-gamma production of CTL clones (ELISA) (peptide-pulsed T2 cells [1]; listed as HJURP-A02-10-405) | IFN-gamma production of CTL lines (ELISA) (peptide-pulsed T2 cells [1]) | Peptide specific CTL activity, IFN-gamma production (ELISPOT) (peptide-pulsed T2 cells [2]) | CTL inducibility / specific CTL activity of CTLs stimulated with the peptide (summary statement) (peptide-pulsed T2 cells [2]; listed as HJURP-A02-10-405) | IFN-gamma production of CTL clones (ELISA) (peptide-pulsed T2 cells [1]; listed as HJURP-A02-9-406) | CTL inducibility / specific CTL activity of CTLs stimulated with the peptide (summary statement) (peptide-pulsed T2 cells [2]; listed as HJURP-A02-9-406) | CTL inducibility / specific CTL activity of CTLs stimulated with the peptide (summary statement) (peptide-pulsed T2 cells [2]; listed as HJURP-A02-9-496)
RTLKWLISPV [SEQ ID NO: 37] | potent IFN-gamma production | potent IFN-gamma production | potent IFN-gamma production | significant and specific CTL activity |  |  | 
TLKWLISPV [SEQ ID NO: 30] |  | potent IFN-gamma production | potent IFN-gamma production |  | potent IFN-gamma production | significant and specific CTL activity | 
SLSEAFENL [SEQ ID NO: 26] |  | potent IFN-gamma production | potent IFN-gamma production |  |  |  | significant and specific CTL activity
